Measured values reported in ChEMBL document CHEMBL6087476, “Positive Charge-Concentrated Dimeric Lipopeptides with Enhanced Protease Resistance: A Potential Solution for Systemic Bacterial Infections” (J Med Chem, 2025).
≈ marks a conversion by molar mass, not a printed value.

Legend:
[1] = test system: RAW264.7; assay: Cytotoxicity against mouse RAW264.7 cells assessed as cell death measured after 18 to 24 hrs by MTT assay; type: functional; settings: time 18-24 hrs
[2] = Cytotoxicity against porcine IPEC-J2 cells assessed as cell death measured after 18 to 24 hrs by MTT assay; type: functional; settings: Sus scrofa, time 18-24 hrs
[3] = test system: Salmonella typhimurium; assay: Antimicrobial activity against Salmonella typhimurium 7731 assessed as increase in absorbance incubated for 20 to 22 hrs; type: functional, Salmonella enterica subsp. enterica serovar Typhimurium; settings: Salmonella enterica, time 20-22 hrs
[4] = test system: Escherichia coli; assay: Antimicrobial activity against Escherichia coli ATCC 25922 assessed as increase in absorbance incubated for 20 to 22 hrs; type: functional; settings: time 20-22 hrs
[5] = test system: Escherichia coli; assay: Antimicrobial activity against Escherichia coli K88 assessed as increase in absorbance incubated for 20 to 22 hrs; type: functional; settings: time 20-22 hrs
[6] = test system: HEK-293T; assay: Cytotoxicity against human HEK293T cells assessed as cell death measured after 18 to 24 hrs by MTT assay; type: functional; settings: time 18-24 hrs
[7] = test system: Staphylococcus aureus; assay: Antimicrobial activity against Staphylococcus aureus 29213 assessed as increase in absorbance incubated for 20 to 22 hrs; type: functional; settings: time 20-22 hrs
[8] = test system: Enterococcus faecalis; assay: Antimicrobial activity against Enterococcus faecalis 29212 assessed as increase in absorbance incubated for 20 to 22 hrs; type: functional; settings: time 20-22 hrs
[9] = test system: Salmonella typhimurium; assay: Antimicrobial activity against Salmonella typhimurium 14028 assessed as increase in absorbance incubated for 20 to 22 hrs; type: functional, Salmonella enterica subsp. enterica serovar Typhimurium; settings: Salmonella enterica, time 20-22 hrs
[10] = test system: Staphylococcus aureus; assay: Antimicrobial activity against Staphylococcus aureus 25923 assessed as increase in absorbance incubated for 20 to 22 hrs; type: functional; settings: time 20-22 hrs
[11] = test system: Pseudomonas aeruginosa; assay: Antimicrobial activity against Pseudomonas aeruginosa 27853 assessed as increase in absorbance incubated for 20 to 22 hrs; type: functional; settings: time 20-22 hrs
[12] = Hemolytic activity in healthy human RBC assessed as hemolysis incubated for 1 hr by microplate reader; type: toxicity, cell-based; settings: erythrocyte
[13] = test system: Escherichia coli; assay: Antimicrobial activity against Escherichia coli K99 assessed as increase in absorbance incubated for 20 to 22 hrs; type: functional; settings: time 20-22 hrs
[14] = test system: Staphylococcus epidermidis; assay: Antimicrobial activity against Staphylococcus epidermidis 12228 assessed as increase in absorbance incubated for 20 to 22 hrs; type: functional; settings: time 20-22 hrs
[15] = test system: Staphylococcus aureus; assay: Antimicrobial activity against methicillin-resistant Staphylococcus aureus 43300 assessed as increase in absorbance incubated for 20 to 22 hrs; type: functional; settings: time 20-22 hrs
[16] = test system: Acinetobacter baumannii; assay: Antimicrobial activity against Acinetobacter baumannii AB1902 assessed as increase in absorbance incubated for 20 to 22 hrs; type: functional; settings: time 20-22 hrs
[17] = test system: Staphylococcus aureus; assay: Antimicrobial activity against Staphylococcus aureus 11011 assessed as increase in absorbance incubated for 20 to 22 hrs; type: functional; settings: time 20-22 hrs
[18] = test system: Pseudomonas aeruginosa; assay: Antimicrobial activity against Pseudomonas aeruginosa 25349 assessed as increase in absorbance incubated for 20 to 22 hrs; type: functional; settings: time 20-22 hrs
[19] = test system: Acinetobacter baumannii; assay: Antimicrobial activity against Acinetobacter baumannii AB1901 assessed as increase in absorbance incubated for 20 to 22 hrs; type: functional; settings: time 20-22 hrs

Row | Compound | IC10 [1] [µM] | IC10 [2] [µM] | MIC [3] [µM] | MIC [4] [µM] | MIC [5] [µM] | IC10 [6] [µM] | MIC [7] [µM] | MIC [8] [µM] | MIC [9] [µM] | MIC [10] [µM] | MIC [11] [µM] | HC10 [12] [µM] | MIC [13] [µM] | MIC [14] [µM] | MIC [15] [µM] | MIC [16] [µM] | MIC [17] [µM] | MIC [18] [µM] | MIC [19] [µM]
1 | CCCCCCCCCCCC(=O)NCCCC[C@H](N)C(=O)NCC(=O)NCC(=O)NCC(=O)N[C@H](CCCNC(=N)N)C(=O)N[C@@H](CCCNC(=N)N)C(=O)N[C@@H](CCCNC(=N)N)C(=O)N1CCC[C@H]1C(=O)N[C@@H](CS)C(=O)O | 64 | 32 | 32 (≈ 37.4 µg/mL) | 16 (≈ 18.7 µg/mL) | 32 (≈ 37.4 µg/mL) | 128 | 64 (≈ 74.8 µg/mL) | 32 (≈ 37.4 µg/mL) | 64 (≈ 74.8 µg/mL) | 64 (≈ 74.8 µg/mL) | 16 (≈ 18.7 µg/mL) | 64 | 32 (≈ 37.4 µg/mL) | 64 (≈ 74.8 µg/mL) | 64 (≈ 74.8 µg/mL) |  |  |  | 
2 | CCCCCCCCCCCC(=O)NCCCC[C@H](NC(=O)[C@@H](N)CSSC[C@H](N)C(=O)N[C@@H](CCCCNC(=O)CCCCCCCCCCC)C(=O)NCC(=O)NCC(=O)NCC(=O)N[C@H](CCCNC(=N)N)C(=O)N[C@@H](CCCNC(=N)N)C(=O)N[C@@H](CCCNC(=N)N)C(=O)N1CCC[C@H]1C(=O)O)C(=O)NCC(=O)NCC(=O)NCC(=O)N[C@H](CCCNC(=N)N)C(=O)N[C@@H](CCCNC(=N)N)C(=O)N[C@@H](CCCNC(=N)N)C(=O)N1CCC[C@H]1C(=O)O | 128 | 128 | 32 (≈ 74.7 µg/mL) | 4 (≈ 9.34 µg/mL) | 16 (≈ 37.4 µg/mL) | 128 | 16 (≈ 37.4 µg/mL) | 16 (≈ 37.4 µg/mL) | 16 (≈ 37.4 µg/mL) | 32 (≈ 74.7 µg/mL) | 8 (≈ 18.7 µg/mL) | 128 | 32 (≈ 74.7 µg/mL) | 16 (≈ 37.4 µg/mL) | 18 (≈ 42 µg/mL) |  |  |  | 
3 | O=C(O)c1cn(C2CC2)c2cc(N3CCNCC3)c(F)cc2c1=O [CIPROFLOXACIN] |  |  |  |  |  |  |  |  |  |  |  |  |  |  |  | > 64 | > 64 | 0.25 (≈ 0.0828 µg/mL) | 0.25 (≈ 0.0828 µg/mL)
4 | CCCCCCCCCC(=O)NCCCC[C@H](NC(=O)[C@@H](N)CS)C(=O)NCC(=O)NCC(=O)NCC(=O)N[C@H](CCCNC(=N)N)C(=O)N[C@@H](CCCNC(=N)N)C(=O)N[C@@H](CCCNC(=N)N)C(=O)N1CCC[C@H]1C(=O)O | 256 | 256 | 64 (≈ 73 µg/mL) | 32 (≈ 36.5 µg/mL) | 32 (≈ 36.5 µg/mL) | 256 | 64 (≈ 73 µg/mL) | 64 (≈ 73 µg/mL) | 32 (≈ 36.5 µg/mL) | 64 (≈ 73 µg/mL) | 16 (≈ 18.2 µg/mL) | 256 | 32 (≈ 36.5 µg/mL) | 128 (≈ 146 µg/mL) | 64 (≈ 73 µg/mL) |  |  |  | 
5 | CCCCCCCCCCCC(=O)NCCCC[C@H](NC(=O)[C@@H](N)CS)C(=O)NCC(=O)NCC(=O)NCC(=O)N[C@H](CCCNC(=N)N)C(=O)N[C@@H](CCCNC(=N)N)C(=O)N[C@@H](CCCNC(=N)N)C(=O)N1CCC[C@H]1C(=O)O | 128 | 256 | 64 (≈ 74.8 µg/mL) | 32 (≈ 37.4 µg/mL) | 32 (≈ 37.4 µg/mL) | 128 | 64 (≈ 74.8 µg/mL) | 64 (≈ 74.8 µg/mL) | 128 (≈ 150 µg/mL) | 128 (≈ 150 µg/mL) | 32 (≈ 37.4 µg/mL) | 128 | 64 (≈ 74.8 µg/mL) | 64 (≈ 74.8 µg/mL) | 64 (≈ 74.8 µg/mL) |  |  |  | 
6 | CC[C@H]1OC(=O)[C@H](C)[C@@H](O[C@H]2C[C@@](C)(OC)[C@@H](O)[C@H](C)O2)[C@H](C)[C@@H](O[C@@H]2O[C@H](C)C[C@H](N(C)C)[C@H]2O)[C@](C)(O)C[C@@H](C)C(=O)[C@H](C)[C@@H](O)[C@]1(C)O [ERYTHROMYCIN] |  |  |  |  |  |  |  |  |  |  |  |  |  |  |  | > 64 | > 64 | 64 (≈ 47 µg/mL) | 64 (≈ 47 µg/mL)
7 | CC(C)(O/N=C(\C(=O)N[C@@H]1C(=O)N2C(C(=O)[O-])=C(C[n+]3ccccc3)CS[C@H]12)c1csc(N)n1)C(=O)O [CEFTAZIDIME] |  |  |  |  |  |  |  |  |  |  |  |  |  |  |  | > 64 | > 64 | 0.5 (≈ 0.273 µg/mL) | 0.5 (≈ 0.273 µg/mL)
8 | CCCCCCCC(=O)NCCCC[C@H](N)C(=O)NCC(=O)NCC(=O)NCC(=O)N[C@H](CCCNC(=N)N)C(=O)N[C@@H](CCCNC(=N)N)C(=O)N[C@@H](CCCNC(=N)N)C(=O)N1CCC[C@H]1C(=O)N[C@@H](CS)C(=O)O | 256 | 256 | 32 (≈ 35.6 µg/mL) | 32 (≈ 35.6 µg/mL) | 32 (≈ 35.6 µg/mL) | 256 | 128 (≈ 142 µg/mL) | 128 (≈ 142 µg/mL) | 64 (≈ 71.2 µg/mL) | 128 (≈ 142 µg/mL) | 8 (≈ 8.9 µg/mL) | 256 | 32 (≈ 35.6 µg/mL) | 128 (≈ 142 µg/mL) | 128 (≈ 142 µg/mL) |  |  |  | 
